Laboratory results: PubChem BioAssay (NCI)
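Results reflect a 48-hour exposure of cells in 96-well plates to compound at five concentrations. TGI marks complete inhibition of growth.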

Experiments:
Assay in all cases: NCI tumour cell line growth inhibition, 48 h
[1] = system: DU-145 prostate
[2] = system: NCI-H23 lung
[3] = system: UACC-257 melanoma
[4] = system: CAKI-1 renal
[5] = system: SK-MEL-2 melanoma
[6] = system: HCC-2998 colon
[7] = system: T-47D breast
[8] = system: M14 melanoma
[9] = system: OVCAR-8 ovarian
[10] = system: NCI-H522 lung
[11] = system: SNB-75 CNS
[12] = system: SF-268 CNS
[13] = system: SK-MEL-28 melanoma
[14] = system: HL-60(TB) leukemia
[15] = system: 786-0 renal
[16] = system: SK-OV-3 ovarian
[17] = system: MDA-MB-231 breast
[18] = system: SK-MEL-5 melanoma
[19] = system: U251 CNS
[20] = system: TK-10 renal
[21] = system: NCI-H226 lung
[22] = system: LOX IMVI melanoma
[23] = system: A498 renal
[24] = system: A549 NSCLC
[25] = system: ACHN renal
[26] = system: SNB-19 CNS
[27] = system: OVCAR-4 ovarian
[28] = system: EKVX NSCLC
[29] = system: OVCAR-5 ovarian
[30] = system: HS 578T breast
[31] = system: HCT-15 colon
[32] = system: MALME-3M melanoma
[33] = system: NCI/ADR-RES ovarian
[34] = system: HOP-62 NSCLC
[35] = system: COLO 205 colon
[36] = system: K-562 leukemia
[37] = system: UACC-62 melanoma
[38] = system: SR leukemia
[39] = system: CCRF-CEM leukemia
[40] = system: SF-295 CNS
[41] = system: SW-620 colon
[42] = system: OVCAR-3 ovarian
[43] = system: RPMI-8226 leukemia
[44] = system: MDA-MB-435
[45] = system: HT29 colon
[46] = system: NCI-H460 lung
[47] = system: MOLT-4 leukemia
[48] = system: HOP-92 NSCLC
[49] = system: IGROV1 ovarian
[50] = system: RXF 393 renal
[51] = system: UO-31 renal
[52] = system: KM12 colon
[53] = system: PC-3 prostate
[54] = system: HCT-116 colon
[55] = system: BT-549 breast

COC(=O)[C@](NC(=O)OCc1ccccc1)([C@@H](C)S(=O)c1ccc(C)cc1)C(F)(F)F (stereo not given in full)
TGI [1]: > 100 µM
TGI [2]: 95.1 µM
TGI [3]: 86.6 µM
TGI [4]: > 100 µM
TGI [5]: 48.9 µM
TGI [6]: > 100 µM
TGI [7]: > 100 µM
TGI [8]: > 100 µM
TGI [9]: > 100 µM
TGI [10]: > 100 µM
TGI [11]: > 100 µM
TGI [12]: > 100 µM
TGI [13]: > 100 µM
TGI [14]: 38.9 µM
TGI [15]: > 100 µM
TGI [16]: > 100 µM
TGI [17]: > 100 µM
TGI [18]: 33.1 µM
TGI [19]: > 100 µM
TGI [20]: 70 µM
TGI [21]: > 100 µM
TGI [22]: > 100 µM
TGI [23]: 95.8 µM
TGI [24]: > 100 µM
TGI [25]: > 100 µM
TGI [26]: > 100 µM
TGI [27]: 89.2 µM
TGI [28]: > 100 µM
TGI [29]: > 100 µM
TGI [30]: > 100 µM
TGI [31]: > 100 µM
TGI [32]: > 100 µM
TGI [33]: > 100 µM
TGI [34]: > 100 µM
TGI [35]: 64.7 µM
TGI [36]: > 100 µM
TGI [37]: > 100 µM
TGI [38]: 61.5 µM
TGI [39]: 92 µM
TGI [40]: > 100 µM
TGI [41]: > 100 µM
TGI [42]: > 100 µM
TGI [43]: > 100 µM
TGI [44]: > 100 µM
TGI [45]: 67 µM
TGI [46]: > 100 µM
TGI [47]: 70 µM
TGI [48]: 96.4 µM
TGI [49]: > 100 µM
TGI [50]: 65.8 µM
TGI [51]: 95.9 µM
TGI [52]: > 100 µM
TGI [53]: > 100 µM
TGI [54]: > 100 µM
TGI [55]: 88.8 µM
